For orientation: pIC50 means the negative decadic logarithm of the IC50, by convention in mol/L. Low values mean a large IC50, high ones a small IC50. Usually AUC(0-inf) stands for the area under the concentration-time curve extrapolated to infinity. Low readings indicate low exposure, high ones high exposure. One may read the Cmax as the highest concentration seen after dosing. In general, half-life refers to the time needed for the level to fall by half in the phase considered.

pIC50: −log10 of the molar value.

T1 sequence (P03951 388-625 limits assumed): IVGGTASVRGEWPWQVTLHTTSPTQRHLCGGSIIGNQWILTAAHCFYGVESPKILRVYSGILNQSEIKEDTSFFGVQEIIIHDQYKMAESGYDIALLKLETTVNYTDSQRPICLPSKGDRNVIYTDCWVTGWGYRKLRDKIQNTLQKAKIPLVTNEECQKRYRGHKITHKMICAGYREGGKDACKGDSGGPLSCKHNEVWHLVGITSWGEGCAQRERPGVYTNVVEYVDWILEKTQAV
T1 sequence (P03951 19-387 partner limits assumed): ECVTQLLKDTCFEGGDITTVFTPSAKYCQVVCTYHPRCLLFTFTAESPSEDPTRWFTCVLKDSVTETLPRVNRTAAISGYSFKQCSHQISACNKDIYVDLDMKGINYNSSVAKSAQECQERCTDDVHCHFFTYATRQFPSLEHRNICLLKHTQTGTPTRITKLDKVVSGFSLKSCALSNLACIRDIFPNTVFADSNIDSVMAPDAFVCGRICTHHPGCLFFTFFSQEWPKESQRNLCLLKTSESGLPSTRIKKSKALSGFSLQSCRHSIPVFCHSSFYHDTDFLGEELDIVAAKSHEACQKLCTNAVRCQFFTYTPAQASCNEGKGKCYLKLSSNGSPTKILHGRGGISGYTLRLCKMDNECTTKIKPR

In the first series the test system is human plasma. The series is described as follows: Anticoagulant effect on human blood in vitro (APTT clotting time, CT2.0). As to conditions: final concentration of compound corresponding to aPTT of the 2-fold blank control. As to the method:
Activated partial thromboplastin time (APTT) measurement reagent was mixed with plasma and the reaction was carried out continuously resulting in a change in optical density up to the clotting point, and the clotting time (CT) was measured by optical turbidimetry using a semi-automatic coagulation analyzer. The in vitro anticoagulant activity of compounds on human blood was determined by detecting the clotting time of plasma treated with different concentrations of compounds, and the corresponding concentration of compounds prolonging clotting time was calculated.
Human plasma used in the experiment was purchased from HD Biosciences (Shanghai) Co., Ltd.; Activated partial thromboplastin time determination kit was purchased from Taizhou Zhongqin Shidi Biotechnology Co., Ltd., Item No. SS00220005.
(§1) The compounds were dissolved in 100% DMSO, 20 mM, and stored at room temperature in a nitrogen cabinet.
a. The NaCl reagent in the kit was incubated half an hour in advance, and the APTT reagent was balanced to room temperature.
b. The compound was continuously diluted at 14 concentration points using a Bravo liquid workstation with a 2-fold gradient.
c. 0.75 μL of the compound was added to the measuring cup, double-replicate wells; 50 μL of plasma was added and 50 μL of APTT reagent was added, the mixture was mixed well and put into coagulation analyzer for incubation at 37° C. for 3 minutes.
d. APTT assay was started, 50 μL of NaCl was added to start the reaction, and the clotting time was counted.
e. Control clotting time was measured using 100% DMSO instead of the compound, and the final concentration of DMSO was 0.5%.
Data were curve-fitted using Graphpad Prism to calculate CT2.0, the final concentration of compound corresponding to aPTT of the 2-fold blank control was calculated.
On to `Nc1ccc(-c2nc(F)c([C@@H]3[C@H]4C[C@H]4c4cc(-c5cc(Cl)ccc5-n5cnnn5)cc(=O)n43)[nH]2)c(F)n1` [Embodiment 36], for which the CT2.0 worked out at 0.42 µM.

For the molecule `Nc1noc2cc(-c3[nH]c([C@@H]4[C@H]5C[C@H]5c5cc(-c6cc(Cl)ccc6-n6cc(C(F)(F)F)nn6)cc(=O)n54)nc3F)ccc12` [Embodiment 79], the CT2.0 was 0.72 µM.

With `O=C1CCc2cc(-c3[nH]c([C@@H]4[C@H]5C[C@H]5c5cc(-c6cc(Cl)ccc6-n6cc(C(F)(F)F)nn6)cc(=O)n54)nc3Cl)ccc2N1` [Embodiment 80], the CT2.0 stood at 3.50 µM.

`O=C1CCc2cc(-c3[nH]c([C@@H]4[C@H]5C[C@H]5c5cc(-c6cc(Cl)ccc6-n6cc(C(F)(F)F)nn6)cc(=O)n54)nc3F)ccc2N1` [Embodiment 81] returned a CT2.0 of 2.28 µM.

`Nc1n[nH]c2cc(-c3cnc([C@@H]4[C@H]5C[C@H]5c5cc(-c6cc(Cl)ccc6-n6cc(C(F)F)nn6)cc(=O)n54)[nH]3)ccc12` [Embodiment 82]: the CT2.0 came out at 1.04 µM.

`Nc1n[nH]c2cc(-c3[nH]c([C@@H]4[C@H]5C[C@H]5c5cc(-c6cc(Cl)ccc6-n6cc(C(F)F)nn6)cc(=O)n54)nc3F)ccc12` [Embodiment 83] gave a CT2.0 of 0.82 µM.

Molecule `Nc1n[nH]c2c(F)c(-c3cnc([C@@H]4[C@H]5C[C@H]5c5cc(-c6cc(Cl)ccc6-n6cnnn6)cc(=O)n54)[nH]3)ccc12` [Embodiment 86] gave a CT2.0 of 0.20 µM.

`O=C1CCc2cc(-c3cnc([C@@H]4[C@H]5C[C@H]5c5nc(-c6cc(Cl)ccc6-n6cc(Cl)nn6)cc(=O)n54)[nH]3)ccc2N1` [Embodiment 89] came in with a CT2.0 of 1.29 µM.

For the molecule `O=C1CCc2c(ccc(-c3cnc([C@@H]4[C@H]5C[C@H]5c5nc(-c6cc(Cl)ccc6-n6cc(Cl)nn6)cc(=O)n54)[nH]3)c2F)N1` [Embodiment 90], the CT2.0 was determined as 0.63 µM.

Regarding `O=C1CCc2c(ccc(-c3cnc([C@@H]4[C@H]5C[C@H]5c5nc(-c6cc(Cl)ccc6-n6cc(Cl)nn6)cc(=O)n54)[nH]3)c2Cl)N1` [Embodiment 91], the CT2.0 came to 2.27 µM.

For the molecule `O=C1CCc2cc(-c3[nH]c([C@@H]4[C@H]5C[C@H]5c5nc(-c6cc(Cl)ccc6-n6cc(Cl)nn6)cc(=O)n54)nc3F)ccc2N1` [Embodiment 92], the CT2.0 turned out to be 0.83 µM.

A further series has as its target T1, coagulation factor XIa protease (FXIa) (Homo sapiens, UniProt P03951).
T1 construct: purchased Abcam ab62411
Nature of the series: Inhibition of coagulation factor XIa (FXIa), chromogenic substrate, absorbance at 405. The conditions noted are these: FXIa 0.05 μg/mL, substrate 2.5 mM, 37° C. 15 minutes. The class given is biochemical. As to the method:
Coagulation factor XIa protease (FXIa) decomposed the specific substrate to produce yellow p-nitroaniline (pNA), pNA had strong absorption at 405 nm. The inhibitory activity of the compounds on coagulation factor XIa was determined by assaying the absorbance of the compounds at […].
The coagulation factor XIa protease used in the experiment was purchased from Abcam Company, Item No. ab62411; the coagulation factor XIa-specific substrate was purchased from HYPHEN BioMed, Item No. Biophen cs-21 (66); tris-HCl was purchased from Invitrogen, Item No. 15567-027; NaCl was purchased from ABCONE, Item No. S39168; Twain 20 was purchased from Amersco, Item No. 0777-1L.
as §1
a. 20 mM of the tested compound was diluted to 2 mM using 100% DMSO, and the reference compound was diluted to 0.4 mM; the compound was continuously diluted with a 3-fold gradient at 10 concentration points using a Bravo liquid workstation.
b. The ECHO liquid workstation was used to transfer 10 nL of compound to the corresponding 384-well experimental plate with double replicate wells; the final concentrations of compound reactions were 1000, 333.3, 111.1, 37.0, 12.3, 4.1, 1.37, 0.46, 0.15, and 0.05 nM. The final concentrations of reference compounds were 200, 66.7, 22.2, 7.4, 2.47, 0.82, 0.27, 0.09, 0.03, 0.01 nM.
c. 10 nL DMSO and 10 nL 0.4 mM reference compounds were transferred to high signal control pores and low signal control pores respectively.
d. 0.1 μg/mL FXIa enzyme solution was prepared with buffer solution, and 10 μL enzyme solution was added to 384-well experimental plate, 5 mM substrate solution was prepared using buffer solution, and […] substrate solution was added to a 384-well experimental plate. The final concentration of FXIa was 0.05 μg/mL and the final concentration of the substrate was 2.5 mM.
e. The 384-hole experimental plate was centrifuged and incubated at 37° C. for 15 minutes.
f. The absorbance was measured at 405 nm using EnVision.
With `Nc1ccc(-c2nc(F)c([C@@H]3[C@H]4C[C@H]4c4cc(-c5cc(Cl)ccc5-n5cnnn5)cc(=O)n43)[nH]2)c(F)n1` [Embodiment 36], the pIC50 was 8.48.

Turning to `Nc1noc2cc(-c3[nH]c([C@@H]4[C@H]5C[C@H]5c5cc(-c6cc(Cl)ccc6-n6cc(C(F)(F)F)nn6)cc(=O)n54)nc3F)ccc12` [Embodiment 79], the pIC50 is 8.99. This pIC50 lies 0.51 log units higher than the previous one.

`O=C1CCc2cc(-c3[nH]c([C@@H]4[C@H]5C[C@H]5c5cc(-c6cc(Cl)ccc6-n6cc(C(F)(F)F)nn6)cc(=O)n54)nc3Cl)ccc2N1` [Embodiment 80] showed a pIC50 of 8.20. Compared with the last molecule, the pIC50 is 0.79 log units lower.

For the molecule `O=C1CCc2cc(-c3[nH]c([C@@H]4[C@H]5C[C@H]5c5cc(-c6cc(Cl)ccc6-n6cc(C(F)(F)F)nn6)cc(=O)n54)nc3F)ccc2N1` [Embodiment 81], the pIC50 is 8.27.

The molecule `Nc1n[nH]c2cc(-c3cnc([C@@H]4[C@H]5C[C@H]5c5cc(-c6cc(Cl)ccc6-n6cc(C(F)F)nn6)cc(=O)n54)[nH]3)ccc12` [Embodiment 82] had a pIC50 of 8.32.

Molecule `Nc1n[nH]c2cc(-c3[nH]c([C@@H]4[C@H]5C[C@H]5c5cc(-c6cc(Cl)ccc6-n6cc(C(F)F)nn6)cc(=O)n54)nc3F)ccc12` [Embodiment 83] gave a pIC50 of 9.08.

Molecule `Nc1n[nH]c2c(F)c(-c3cnc([C@@H]4[C@H]5C[C@H]5c5cc(-c6cc(Cl)ccc6-n6cnnn6)cc(=O)n54)[nH]3)ccc12` [Embodiment 86] gave a pIC50 of 9.51.

For the molecule `O=C1CCc2cc(-c3cnc([C@@H]4[C@H]5C[C@H]5c5nc(-c6cc(Cl)ccc6-n6cc(Cl)nn6)cc(=O)n54)[nH]3)ccc2N1` [Embodiment 89], the pIC50 is 7.90. This pIC50 lies 1.61 log units lower than the previous one.

As to `O=C1CCc2c(ccc(-c3cnc([C@@H]4[C@H]5C[C@H]5c5nc(-c6cc(Cl)ccc6-n6cc(Cl)nn6)cc(=O)n54)[nH]3)c2F)N1` [Embodiment 90], the pIC50 is 8.20.

For `O=C1CCc2c(ccc(-c3cnc([C@@H]4[C@H]5C[C@H]5c5nc(-c6cc(Cl)ccc6-n6cc(Cl)nn6)cc(=O)n54)[nH]3)c2Cl)N1` [Embodiment 91], the pIC50 is 8.41.

Molecule `O=C1CCc2cc(-c3[nH]c([C@@H]4[C@H]5C[C@H]5c5nc(-c6cc(Cl)ccc6-n6cc(Cl)nn6)cc(=O)n54)nc3F)ccc2N1` [Embodiment 92] showed a negative logarithm of the IC50 (pIC50) of 8.37. The pIC50 values of the last two molecules are within 0.2 log units of each other.

System in the next series: not listed separately
The series is described as follows: Pharmacokinetic experiment in rats, intravenous injection and oral administration. The conditions noted are these: male Sprague Dawley rats, intragastric administration 2 mg/kg vs intravenous 1 mg/kg. The class given is in vivo. As to the method:
In this experimental embodiment, in vivo pharmacokinetic evaluation was performed in rats by intravenous injection and oral administration.
Experimental methods and conditions: Male Sprague Dawley rats were given the test compound 1 mg/Kg (intravenous injection, solvent 5% DMSO/10% Solutol/85% Saline) and 2 mg/Kg (intragastric administration, solvent 0.5% MC) by respectively; 5 min, 15 min, 30 min, 1 hr, 2 hr, 4 hr, 6 hr, 8 hr, 24 hr after administration, blood was collected from submandibular vein, 0.20 mL was collected from each sample , and heparin sodium was used for anticoagulation. After collection, the sample was placed on ice, and the plasma was centrifuged to be measured within 1 hour. Plasma drug concentration in plasma was detected by liquid chromatography tandem mass spectrometry (LC/MS/MS) to calculate pharmacokinetic parameters.
Turning to `Nc1ccc(-c2nc(F)c([C@@H]3[C@H]4C[C@H]4c4cc(-c5cc(Cl)ccc5-n5cnnn5)cc(=O)n43)[nH]2)c(F)n1` [Embodiment 36], the F amounted to 25.32%.

On to `O=C1CCc2c(ccc(-c3cnc([C@@H]4[C@H]5C[C@H]5c5nc(-c6cc(Cl)ccc6-n6cc(Cl)nn6)cc(=O)n54)[nH]3)c2F)N1` [Embodiment 90], for which the F turned out to be 28.4%.

The series is the same for the next values; noted with them: rat, plasma, po; male Sprague Dawley rats, intragastric administration 2 mg/kg.
`Nc1ccc(-c2nc(F)c([C@@H]3[C@H]4C[C@H]4c4cc(-c5cc(Cl)ccc5-n5cnnn5)cc(=O)n43)[nH]2)c(F)n1` [Embodiment 36] had an AUC(0-inf) of 3310 ng·h/mL, a Cmax of 709 ng/mL and a half-life of 1.63 h.

In turn, `O=C1CCc2c(ccc(-c3cnc([C@@H]4[C@H]5C[C@H]5c5nc(-c6cc(Cl)ccc6-n6cc(Cl)nn6)cc(=O)n54)[nH]3)c2F)N1` [Embodiment 90] had an AUC(0-inf) of 17600 ng·h/mL, a Cmax of 1830 ng/mL and a half-life of 3.16 h.

Still in this series, the particulars now being: rat, plasma; male Sprague Dawley rats, intravenous administration 1 mg/kg.
The molecule `Nc1ccc(-c2nc(F)c([C@@H]3[C@H]4C[C@H]4c4cc(-c5cc(Cl)ccc5-n5cnnn5)cc(=O)n43)[nH]2)c(F)n1` [Embodiment 36] showed an AUC(0-inf) of 6530 ng·h/mL, a clearance of 2.66 mL/min/kg and a half-life of 1.65 h.

`O=C1CCc2c(ccc(-c3cnc([C@@H]4[C@H]5C[C@H]5c5nc(-c6cc(Cl)ccc6-n6cc(Cl)nn6)cc(=O)n54)[nH]3)c2F)N1` [Embodiment 90] had an AUC(0-inf) of 26900 ng·h/mL, a clearance of 0.63 mL/min/kg and a half-life of 3.41 h.

The same series, now with this note: rat, plasma; male Sprague Dawley rats, intravenous administration 1 mg/kg; read-out: Vz.
In the case of `Nc1ccc(-c2nc(F)c([C@@H]3[C@H]4C[C@H]4c4cc(-c5cc(Cl)ccc5-n5cnnn5)cc(=O)n43)[nH]2)c(F)n1` [Embodiment 36], the Vd was 0.349 L/kg.

Take `O=C1CCc2c(ccc(-c3cnc([C@@H]4[C@H]5C[C@H]5c5nc(-c6cc(Cl)ccc6-n6cc(Cl)nn6)cc(=O)n54)[nH]3)c2F)N1` [Embodiment 90]: the Vd stood at 0.18 L/kg.

The values above are taken from patent US20220251095A1, “TRICYCLIC COMPOUND, PREPARATION METHOD THEREFOR AND USE THEREOF” (SHANGHAI JEMINCARE PHARMACEUTICALS CO., LTD., priority 2019, published 2022).
